{
  "source": "patent US20050042716A1",
  "about": "“Allergen inactivating method, allergen inactivating filter, air treating apparatus, virus inactivating agent, virus inactivating method, virus inactivating filter, air conditoning unit and air conditioner” (priority 2003, published 2005)",
  "key": {"Cj-1 allergen": {"target": "Cj-1 allergen (Cryptomeria japonica, UniProt P18632)", "sequence (P18632 22-374)": "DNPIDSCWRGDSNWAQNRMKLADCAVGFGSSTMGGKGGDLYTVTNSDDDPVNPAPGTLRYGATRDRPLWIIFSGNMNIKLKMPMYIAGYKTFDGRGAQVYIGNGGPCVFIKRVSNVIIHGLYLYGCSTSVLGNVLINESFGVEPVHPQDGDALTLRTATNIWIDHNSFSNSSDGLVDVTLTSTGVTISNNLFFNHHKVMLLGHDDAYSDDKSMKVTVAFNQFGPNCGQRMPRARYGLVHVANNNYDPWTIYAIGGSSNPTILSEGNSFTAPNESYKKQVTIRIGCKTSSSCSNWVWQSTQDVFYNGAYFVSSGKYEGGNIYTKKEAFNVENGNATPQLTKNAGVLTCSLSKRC", "experiment": "Electrophoresis and Western blotting with Cj-1 antibody", "assay_type": "biochemical, cedar", "details": "for denaturation of Cj-1 protein (Western band): 5 N HCl, 60° C., 60 minutes"}, "mite allergen": {"system": "mite allergen", "experiment": "Mite allergen inactivation in mite extract, detected with DaniScan", "assay_type": "biochemical"}, "cedar antigen Cryj-2": {"target": "cedar antigen Cryj-2 (Cryptomeria japonica, UniProt P43212)", "sequence (P43212 46-433)": "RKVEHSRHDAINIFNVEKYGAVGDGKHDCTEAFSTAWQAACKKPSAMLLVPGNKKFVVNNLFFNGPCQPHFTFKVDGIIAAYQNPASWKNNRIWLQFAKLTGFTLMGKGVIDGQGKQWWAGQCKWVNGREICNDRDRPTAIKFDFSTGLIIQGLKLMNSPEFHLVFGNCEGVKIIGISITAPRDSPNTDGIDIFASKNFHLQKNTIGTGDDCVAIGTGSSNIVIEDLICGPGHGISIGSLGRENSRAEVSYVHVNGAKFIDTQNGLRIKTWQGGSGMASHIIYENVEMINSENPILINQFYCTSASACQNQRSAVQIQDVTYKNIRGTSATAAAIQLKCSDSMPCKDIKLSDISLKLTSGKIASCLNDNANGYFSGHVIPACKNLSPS", "experiment": "Electrophoresis of treated cedar antigen Cryj-2", "assay_type": "biochemical", "details": "10 μL 5 N HCL per 10 μL Cj-2 solution, 60° C., 60 minutes"}, "cedar extract": {"system": "cedar extract", "experiment": "Electrophoresis of treated cedar extract (protein staining)", "assay_type": "biochemical"}, "cedar antigen Cryj-1": {"target": "cedar antigen Cryj-1 (Cryptomeria japonica, UniProt P18632)", "sequence (P18632 22-374)": "as the sequence (P18632 22-374) above", "experiment": "Electrophoresis of treated cedar antigen Cryj-1", "assay_type": "biochemical", "details": "10 μL 5 N HCL per 10 μL Cj-1 solution, 60° C., 60 minutes"}, "λ-phage": {"system": "λ-phage", "experiment": "Inactivation test of λ-phage in solution (plaque count on E. coli XL1-Blue MRF′)", "assay_type": "cell-based"}, "M13 phage": {"system": "M13 phage", "experiment": "Inactivation test of M13 phage in solution (plaque count on E. coli JM109)", "assay_type": "cell-based", "details": "9 M urea, 1 hour", "experimental": "This solution was added in the 1.5 mL volume tube to prepare a protease treatment solution. […] This solution was added in the 1.5 mL volume tube to prepare an urea treatment solution. […] This solution was added in the 1.5 mL volume tube to prepare an urea/protease treatment solution. Each solution was incubated at 37° C. for 1 hour. After the incubation, 600 μL of PEG solution (20% PEG6000, 2.5M NaCl) was added, and the solution was allowed to stand in ice for 3 hours. […] After incubating the medium at 37° C. for 5 hours, the number of the plaques appeared was counted to determine pfu. […] Into this solution in the 1.5 mL volume tube, 0, 0.08, 0.8 and 8 μL each of pfu protease (manufactured by Takara Bio Co.) solution was added. […] Into this solution in the 1.5 mL volume tube, 0, 0.08, 0.8 and 8 μL each of pfu protease (manufactured by Takara Bio Co.) solution was added. […] Each treatment solution was incubated at 37° C. for 1 hour. After the incubation, 600 μL of PEG solution (20% PEG6000, 2.5M NaCl) was added, and the solution was allowed to stand in ice for 3 hours. […] After incubating the medium at 37° C. for 5 hours, the number of the plaques appeared was counted to determine pfu. […] After the incubation, 600 μL of PEG solution (20% PEG, 2.5M NaCl) was added, and the solution was allowed to stand in ice for 3 hours. […] After incubating the medium at 37° C. for 5 hours, the number of the plaques appeared was counted to determine pfu for evaluating the infection ability. The inactivation ratio of M13 phage was calculated from the results in Table 10, and is shown in the graph in FIG."}, "[1]": {"details": "37° C., 1 hour, pfu protease S final 2%, 9 M urea"}},
  "data": [
    {"molecule": "Cl", "note": "[acid, hydrochloric acid]", "values": [
      {"measurement": "denaturation of Cj-1 protein (Western band)", "setting": "Cj-1 allergen; Cj-1 solution", "value": "most of the cedar antigen Cj-1 protein was denatured"},
      {"measurement": "denaturation of Cj-1 protein (Western band)", "setting": "Cj-1 allergen; cedar extract", "value": "most of the cedar antigen Cj-1 protein was denatured"},
      {"measurement": "mite allergen inactivation (DaniScan band)", "setting": "mite allergen; 2.5 M hydrochloric acid, 60° C., 60 minutes", "value": "most of the allergen is inactivated"},
      {"measurement": "denaturation of Cj-2 protein (bands)", "setting": "cedar antigen Cryj-2", "value": "most of the cedar allergen Cj-2 protein was denatured"},
      {"measurement": "denaturation of cedar proteins (bands)", "setting": "cedar extract; 10 μL 5 N HCL per 10 μL cedar preparation, 60° C., 60 minutes", "value": "most of the proteins derived from cedar was denatured"},
      {"measurement": "denaturation of Cj-1 protein (bands)", "setting": "cedar antigen Cryj-1", "value": "most of the cedar allergen Cj-1 protein was denatured"}
    ]},
    {"molecule": "NC(N)=O", "note": "[Urea, urea]", "values": [
      {"measurement": "Infection ability of λ-phage", "setting": "λ-phage; 3 M urea, 37° C., treatment time 0 min", "value": "9.4 × 10^7 pfu/ml"},
      {"measurement": "Infection ability of λ-phage", "setting": "λ-phage; 3 M urea, 37° C., treatment time 15 min", "value": "1.5 × 10^8 pfu/ml"},
      {"measurement": "Infection ability of λ-phage", "setting": "λ-phage; 3 M urea, 37° C., treatment time 60 min", "value": "1.1 × 10^8 pfu/ml"},
      {"measurement": "inactivation of λ-phage (in words)", "setting": "λ-phage; 3 M urea, irrespective of the treatment time", "value": "not substantially inactivated"},
      {"measurement": "Infection ability of λ-phage", "setting": "λ-phage; 9 M urea, 37° C., treatment time 0 min", "value": "4 × 10^6 pfu/ml"},
      {"measurement": "Infection ability of λ-phage by adding 9 M urea", "setting": "λ-phage; 9 M urea, 37° C., treatment time 0 min (Table 6)", "value": "8.4 × 10^5 pfu/mL"},
      {"measurement": "Infection ability of λ-phage by adding 9 M urea", "setting": "λ-phage; 9 M urea, 37° C., treatment time 7.5 min", "value": 0, "unit": "pfu/mL"},
      {"measurement": "Infection ability of λ-phage", "setting": "λ-phage; 9 M urea, 37° C., treatment time 15 min", "value": 0, "unit": "pfu/ml"},
      {"measurement": "Infection ability of λ-phage by adding 9 M urea", "setting": "λ-phage; 9 M urea, 37° C., treatment time 15 min (Table 6)", "value": 0, "unit": "pfu/mL"},
      {"measurement": "Infection ability of λ-phage by adding 9 M urea", "setting": "λ-phage; 9 M urea, 37° C., treatment time 30 min", "value": 0, "unit": "pfu/mL"},
      {"measurement": "Infection ability of λ-phage", "setting": "λ-phage; 9 M urea, 37° C., treatment time 60 min", "value": 0, "unit": "pfu/ml"},
      {"measurement": "Infection ability of λ-phage by adding 9 M urea", "setting": "λ-phage; 9 M urea, 37° C., treatment time 60 min (Table 6)", "value": 0, "unit": "pfu/mL"},
      {"measurement": "inactivation of λ-phage (in words)", "setting": "λ-phage; 9 M urea, treatment time of 15 minutes or more", "value": "completely inactivated"},
      {"measurement": "Infection ability of λ-phage", "setting": "λ-phage; [1]", "value": 0, "unit": "pfu/mL"},
      {"measurement": "inactivation of λ-phage (in words)", "setting": "λ-phage; [1]", "value": "inactivated"},
      {"measurement": "inactivation ratio of λ-phage", "setting": "λ-phage; immediately after contacting 9 M urea", "value": "about 99.96%"},
      {"measurement": "inactivation ratio of M13 phage", "setting": "M13 phage; 37° C.", "value": "about 50%"},
      {"measurement": "Infection ability of M13 phage", "setting": "M13 phage; protease concentration 0, 37° C.", "value": "6.3 × 10^9"},
      {"measurement": "Infection ability of M13 phage", "setting": "M13 phage; 37° C., pfu protease S final 2%", "value": "1.1 × 10^10 pfu/mL"}
    ]},
    {"molecule": "[Na+].[OH-]", "note": "[alkali, sodium hydroxide]", "values": [
      {"measurement": "mite allergen inactivation (DaniScan band)", "setting": "mite allergen; 2.5 M sodium hydroxide, 40° C. and 60° C., 10 minutes", "value": "inactivated"}
    ]},
    {"molecule": "papain: purified edible papain manufactured by Nagase Chemtechs Co. (protein, UniProt P00784 134-345, looked up) Papain: IPEYVDWRQKGAVTPVKNQGSCGSCWAFSAVVTIEGIIKIRTGNLNEYSEQELLDCDRRSYGCNGGYPWSALQLVAQYGIHYRNTYPYEGVQRYCRSREKGPYAAKTDGVRQVQPYNEGALLYSIANQPVSVVLEAAGKDFQLYRGGIFVGPCGNKVDHAVAAVGYGPNYILIKNSWGTGWGENGYIRIKRGTGNSYGVCGLYTSSFYPVKN", "values": [
      {"measurement": "inactivation of Cj-1 allergen (Western band)", "setting": "Cj-1 allergen; cedar extract, 3 μL (0.2 g/mL) papain, 40° C., 15 minutes", "value": "completely inactivated"},
      {"measurement": "decomposition of cedar proteins (bands)", "setting": "cedar extract; 3 μL (0.2 g/mL) papain solution, 40° C., 15 minutes", "value": "most of the cedar proteins had been decomposed"}
    ]}
  ]
}
